PubChem BioAssay (NCI)
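These data come from cells grown in 96-well plates and exposed to compound for 48 hours at five concentrations. The concentration for 50% growth inhibition is given as GI50. Definition used: TGI = concentration required for complete inhibition of growth.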 Where a SMILES comes first, the peptide text is derived from it. [ ]: non-standard residue; d: D form.

Legend:
Experiment in all cases: DTP human tumour cell line panel, 48 h
NCI-H226 lung = test system: NCI-H226 lung
RPMI-8226 leukemia = test system: RPMI-8226 leukemia
SK-MEL-2 melanoma = test system: SK-MEL-2 melanoma
A549 NSCLC = test system: A549 NSCLC
SN12C renal = test system: SN12C renal
K-562 leukemia = test system: K-562 leukemia
786-0 renal = test system: 786-0 renal
HOP-62 NSCLC = test system: HOP-62 NSCLC
EKVX NSCLC = test system: EKVX NSCLC
HOP-92 NSCLC = test system: HOP-92 NSCLC
MDA-MB-435 = test system: MDA-MB-435

COc1ccc(C(C2=C(O)CC(C)OC2=O)C2=C(O)CC(C)OC2=O)cc1 (stereo not given)
TGI (NCI-H226 lung): > 100 µM | TGI (RPMI-8226 leukemia): > 100 µM | TGI (SK-MEL-2 melanoma): > 100 µM | TGI (A549 NSCLC): > 100 µM | TGI (SN12C renal): > 100 µM | TGI (K-562 leukemia): > 100 µM | TGI (786-0 renal): > 100 µM | TGI (HOP-62 NSCLC): > 100 µM | TGI (EKVX NSCLC): > 100 µM

CC(C)C[C@H](NC(=O)[C@H](CC(C)C)NC(=O)[C@@H](Cc1c[nH]c2ccccc12)NC(=O)[C@H](Cc1ccccc1)NC(=O)[C@@H](Cc1c[nH]c2ccccc12)NC(=O)[C@H](CCC(N)=O)NC(=O)[C@@H](CCC(N)=O)NC(=O)[C@@H]1CCCN1C(=O)[C@@H](CCCCN)NC(=O)[C@H]1CCCN1C(=O)[C@H](N)CCCN=C(N)N)C(N)=O (H-[dR][dP][dK]P[dQ]Q[dW]F[dW]LL-NH2)
TGI (NCI-H226 lung): > 100 µM | TGI (RPMI-8226 leukemia): > 100 µM | TGI (SK-MEL-2 melanoma): > 100 µM | TGI (A549 NSCLC): > 100 µM | TGI (SN12C renal): > 100 µM | TGI (K-562 leukemia): > 100 µM | TGI (HOP-92 NSCLC): > 100 µM | TGI (HOP-62 NSCLC): > 100 µM | TGI (EKVX NSCLC): > 100 µM

COc1cc2c3c(n(C)c(=O)c2cc1OC)-c1cc2c(cc1/C3=C\CCCCl)OCO2
TGI (SK-MEL-2 melanoma): 98.9 µM | TGI (A549 NSCLC): > 100 µM | GI50 (MDA-MB-435): > 100 µM | TGI (MDA-MB-435): > 100 µM | GI50 (SN12C renal): > 100 µM | TGI (SN12C renal): > 100 µM | TGI (K-562 leukemia): > 100 µM | TGI (786-0 renal): 40 µM | TGI (HOP-92 NSCLC): > 100 µM | GI50 (HOP-62 NSCLC): 17.5 µM | TGI (HOP-62 NSCLC): 62.8 µM | TGI (EKVX NSCLC): > 100 µM

C/C(=N\N=C(N)N)C(CN1CCOCC1)C(c1ccccc1)c1c(O)c2ccccc2oc1=O (stereo not given)
TGI (NCI-H226 lung): > 100 µM | TGI (RPMI-8226 leukemia): > 100 µM | TGI (SK-MEL-2 melanoma): > 100 µM | TGI (A549 NSCLC): > 100 µM | TGI (SN12C renal): > 100 µM | TGI (K-562 leukemia): > 100 µM | TGI (786-0 renal): > 100 µM | TGI (HOP-92 NSCLC): 96.9 µM | TGI (HOP-62 NSCLC): > 100 µM | TGI (EKVX NSCLC): > 100 µM

CCSC12OC3(CCCCCN3C1=O)C1C(=O)N(c3ccccc3)C(=O)C12 (stereo not given)
TGI (NCI-H226 lung): > 100 µM | TGI (SK-MEL-2 melanoma): > 100 µM | TGI (A549 NSCLC): > 100 µM | TGI (MDA-MB-435): > 100 µM | TGI (SN12C renal): > 100 µM | TGI (K-562 leukemia): > 100 µM | TGI (786-0 renal): > 100 µM | TGI (HOP-92 NSCLC): > 100 µM | TGI (EKVX NSCLC): > 100 µM

O=C(CC12C3C4C1C1C2C3C41CC(=O)NO)NO (stereo not given)
TGI (NCI-H226 lung): 94.3 µM | TGI (RPMI-8226 leukemia): > 100 µM | TGI (SK-MEL-2 melanoma): > 100 µM | TGI (A549 NSCLC): > 100 µM | TGI (SN12C renal): > 100 µM | TGI (K-562 leukemia): 87.1 µM | TGI (786-0 renal): > 100 µM | TGI (HOP-92 NSCLC): 97 µM | TGI (HOP-62 NSCLC): > 100 µM | TGI (EKVX NSCLC): > 100 µM

N#CC1=C(O)NC(O)=C(C#N)C1c1c(Cl)cccc1Cl
TGI (NCI-H226 lung): 64.9 µM | TGI (RPMI-8226 leukemia): > 100 µM | TGI (SK-MEL-2 melanoma): 52.3 µM | TGI (A549 NSCLC): > 100 µM | TGI (SN12C renal): > 100 µM | TGI (K-562 leukemia): > 100 µM | TGI (HOP-92 NSCLC): 43.9 µM | TGI (HOP-62 NSCLC): 67.8 µM | TGI (EKVX NSCLC): > 100 µM

CCOc1ccccc1N=NC1C(=O)N(C(=O)CC(=O)Nc2ccccc2C)N=C1C (stereo not given)
TGI (NCI-H226 lung): > 100 µM | TGI (RPMI-8226 leukemia): > 100 µM | TGI (SK-MEL-2 melanoma): > 100 µM | TGI (A549 NSCLC): > 100 µM | TGI (MDA-MB-435): > 100 µM | TGI (SN12C renal): > 100 µM | TGI (786-0 renal): > 100 µM | TGI (HOP-92 NSCLC): 40.8 µM | TGI (HOP-62 NSCLC): 41.5 µM | TGI (EKVX NSCLC): 43.7 µM

O=S(=O)(O)c1cc(S(=O)(=O)O)c2cc(N=Nc3ccc(N=Nc4ccc(/C=C/c5ccc(N=[N+]([O-])c6ccc(/C=C/c7ccc(N=Nc8ccc(N=Nc9ccc%10cc(S(=O)(=O)O)cc(S(=O)(=O)O)c%10c9)cc8)cc7S(=O)(=O)O)c(S(=O)(=O)O)c6)cc5S(=O)(=O)O)c(S(=O)(=O)O)c4)cc3)ccc2c1
TGI (NCI-H226 lung): > 100 µM | TGI (RPMI-8226 leukemia): > 100 µM | TGI (SK-MEL-2 melanoma): > 100 µM | TGI (A549 NSCLC): > 100 µM | TGI (SN12C renal): > 100 µM | TGI (K-562 leukemia): > 100 µM | TGI (HOP-92 NSCLC): 98.9 µM | TGI (HOP-62 NSCLC): > 100 µM | TGI (EKVX NSCLC): > 100 µM

CC(=O)NC1C(OCc2ccccc2)OC(CO)C(O)C1OC(C)C(=O)NC(C(=O)NC(CCC(=O)NCCCNc1ccc([N+](=O)[O-])c2[nH]c3ccccc3c(=O)c12)C(N)=O)C(C)C (stereo not given)
TGI (NCI-H226 lung): > 100 µM | TGI (SK-MEL-2 melanoma): > 100 µM | TGI (A549 NSCLC): > 100 µM | TGI (MDA-MB-435): > 100 µM | TGI (SN12C renal): > 100 µM | TGI (786-0 renal): > 100 µM | TGI (HOP-92 NSCLC): > 100 µM | TGI (HOP-62 NSCLC): > 100 µM | TGI (EKVX NSCLC): > 100 µM

CSc1ccc(N2C(=O)C3c4[nH]c5ccccc5c4C4CCC(C(C)(C)C)CC4C3C2=O)cc1 (stereo not given)
TGI (NCI-H226 lung): 42.9 µM | TGI (RPMI-8226 leukemia): > 100 µM | TGI (SK-MEL-2 melanoma): 43.1 µM | TGI (A549 NSCLC): 33.5 µM | TGI (SN12C renal): 35.9 µM | TGI (K-562 leukemia): 34.5 µM | TGI (786-0 renal): 29.1 µM | TGI (HOP-92 NSCLC): 27.1 µM | TGI (HOP-62 NSCLC): 28.6 µM | TGI (EKVX NSCLC): 44.2 µM

O=C1Sc2ccccc2C(=O)N2CCSC12 (stereo not given)
TGI (RPMI-8226 leukemia): > 100 µM | TGI (SK-MEL-2 melanoma): > 100 µM | TGI (SN12C renal): > 100 µM | TGI (K-562 leukemia): > 100 µM | TGI (HOP-92 NSCLC): > 100 µM | TGI (HOP-62 NSCLC): > 100 µM

COC(=O)C1=C(C)NC(C)=C(C(=O)OC)C1c1cccc(/[N+]([O-])=C/c2ccccc2)c1
TGI (NCI-H226 lung): > 100 µM | TGI (RPMI-8226 leukemia): > 100 µM | TGI (SK-MEL-2 melanoma): > 100 µM | TGI (A549 NSCLC): > 100 µM | TGI (MDA-MB-435): 35.7 µM | TGI (786-0 renal): 31.5 µM | TGI (HOP-92 NSCLC): 38 µM | TGI (HOP-62 NSCLC): > 100 µM | TGI (EKVX NSCLC): > 100 µM

NC1(c2cc3ccccc3s2)CCCCCC1
TGI (NCI-H226 lung): 38.4 µM | TGI (SK-MEL-2 melanoma): 22.1 µM | TGI (A549 NSCLC): 34.2 µM | TGI (MDA-MB-435): 29.7 µM | TGI (SN12C renal): 31 µM | TGI (K-562 leukemia): 28.1 µM | TGI (786-0 renal): 28.8 µM | TGI (HOP-92 NSCLC): 30.5 µM | TGI (HOP-62 NSCLC): 27.7 µM | TGI (EKVX NSCLC): 33.2 µM

O=C1CCC2(O)c3ccccc3C2Cc2ccccc21 (stereo not given)
TGI (NCI-H226 lung): > 100 µM | TGI (RPMI-8226 leukemia): > 100 µM | TGI (SK-MEL-2 melanoma): > 100 µM | TGI (SN12C renal): > 100 µM | TGI (K-562 leukemia): > 100 µM | TGI (786-0 renal): > 100 µM | TGI (HOP-92 NSCLC): > 100 µM | TGI (HOP-62 NSCLC): > 100 µM | TGI (EKVX NSCLC): > 100 µM
